What follows are compounds tested against human GluN1/GluN2B NMDA receptors (Homo sapiens, UniProt Q05586+Q13224) (assay: Cell-based calcium flux (FLIPR) assay on cloned human NR1/NR2B ion channels expressed in mammalian cells). Settings: standard assay; human GluN1/GluN2B, calcium flux (FLIPR), glutamate ~EC80.
human GluN1/GluN2B NMDA receptors, sequence (Q13224 27-1484, other chains not shown): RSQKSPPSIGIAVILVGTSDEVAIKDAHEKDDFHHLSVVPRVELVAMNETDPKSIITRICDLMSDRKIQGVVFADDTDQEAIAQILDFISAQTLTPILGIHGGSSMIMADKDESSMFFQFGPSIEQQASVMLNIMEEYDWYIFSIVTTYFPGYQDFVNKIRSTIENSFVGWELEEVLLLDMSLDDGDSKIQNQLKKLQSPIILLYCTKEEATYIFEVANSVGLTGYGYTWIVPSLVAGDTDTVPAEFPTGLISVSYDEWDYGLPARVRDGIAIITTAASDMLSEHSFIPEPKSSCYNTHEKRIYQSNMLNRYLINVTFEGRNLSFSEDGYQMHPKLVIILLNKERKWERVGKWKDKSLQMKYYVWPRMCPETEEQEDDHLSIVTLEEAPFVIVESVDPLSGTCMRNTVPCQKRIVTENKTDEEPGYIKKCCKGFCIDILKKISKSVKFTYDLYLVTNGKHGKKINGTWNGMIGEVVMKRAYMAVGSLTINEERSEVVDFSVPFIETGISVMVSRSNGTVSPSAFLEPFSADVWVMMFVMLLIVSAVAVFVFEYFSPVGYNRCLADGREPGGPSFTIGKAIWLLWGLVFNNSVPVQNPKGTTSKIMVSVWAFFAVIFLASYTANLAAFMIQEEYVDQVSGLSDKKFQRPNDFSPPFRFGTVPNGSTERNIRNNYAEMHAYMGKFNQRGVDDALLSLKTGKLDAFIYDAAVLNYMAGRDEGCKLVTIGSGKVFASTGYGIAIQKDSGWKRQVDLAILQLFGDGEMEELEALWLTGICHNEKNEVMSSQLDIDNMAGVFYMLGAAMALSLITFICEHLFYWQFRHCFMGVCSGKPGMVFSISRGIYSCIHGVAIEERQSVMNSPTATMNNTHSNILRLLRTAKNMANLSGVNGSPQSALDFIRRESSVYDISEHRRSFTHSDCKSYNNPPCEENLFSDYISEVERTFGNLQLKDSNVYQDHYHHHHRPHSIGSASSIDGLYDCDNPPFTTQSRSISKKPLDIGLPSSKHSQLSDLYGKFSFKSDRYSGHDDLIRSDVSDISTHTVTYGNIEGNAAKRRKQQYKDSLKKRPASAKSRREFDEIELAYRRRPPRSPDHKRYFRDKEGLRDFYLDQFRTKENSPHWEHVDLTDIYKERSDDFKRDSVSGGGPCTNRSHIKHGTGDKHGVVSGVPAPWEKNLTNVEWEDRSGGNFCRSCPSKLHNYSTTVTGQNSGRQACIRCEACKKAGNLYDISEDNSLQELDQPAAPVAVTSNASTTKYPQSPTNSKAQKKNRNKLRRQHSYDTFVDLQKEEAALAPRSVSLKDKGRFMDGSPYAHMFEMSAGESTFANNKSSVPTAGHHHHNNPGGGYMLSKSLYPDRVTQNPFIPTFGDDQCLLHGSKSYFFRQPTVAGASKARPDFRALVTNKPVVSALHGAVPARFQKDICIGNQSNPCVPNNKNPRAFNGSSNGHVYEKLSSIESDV
In short: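 Calcium influx followed by FLIPR fluorescence after 5 min compound exposure and a further 5 min co-agonist challenge: 10 μM glycine with glutamate at ~EC80 (standard) or EC40 (HTS).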
For `CC(F)(F)c1cccc(-n2cc(COc3ncc(F)cn3)nn2)c1` [Example 295, 2-[[1-[3-(1,1-Difluoroethyl)phenyl]triazol-4-yl]methoxy]-5-fluoro-pyrimidine], the IC50 was 0.061 µM.
For `Cc1ccnc(OCc2cn(-c3cccc(C(C)(F)F)c3)nn2)n1` [Example 296, 2-[[1-[3-(1,1-Difluoroethyl)phenyl]triazol-4-yl]methoxy]-4-methyl-pyrimidine], the IC50 was 0.012 µM.
`Cc1cnc(OCc2cn(-c3cccc(C(C)(F)F)c3)nn2)nc1` [Example 297, 2-[[1-[3-(1,1-Difluoroethyl)phenyl]triazol-4-yl]methoxy]-5-methyl-pyrimidine] showed an IC50 of 0.005 µM.
`CC(F)(F)c1cccc(-n2cc(COc3ncc(CO)cn3)nn2)c1` [Example 298, [2-[[1-[3-(1,1-Difluoroethyl)phenyl]triazol-4-yl]methoxy]pyrimidin-5-yl]methanol] was tested, and the IC50 was 0.034 µM.
`CC(F)(F)c1cccc(-n2cc(COc3nccc(CO)n3)nn2)c1` [Example 299, [2-[[1-[3-(1,1-Difluoroethyl)phenyl]triazol-4-yl]methoxy]pyrimidin-4-yl]methanol] gave an IC50 of 0.049 µM.
`COCc1ccnc(OCc2cn(-c3cccc(C(C)(F)F)c3)nn2)n1` [Example 300, 2-[[1-[3-(1,1-Difluoroethyl)phenyl]triazol-4-yl]methoxy]-4-(methoxymethyl)pyrimidine] gave an IC50 of 0.008 µM.
Work on `CC(C)(O)c1cnc(OCc2cn(-c3cccc(C(C)(F)F)c3)nn2)nc1` [Example 301, 2-[2-[[1-[3-(1,1-Difluoroethyl)phenyl]triazol-4-yl]methoxy]pyrimidin-5-yl]propan-2-ol] yielded an IC50 of 0.119 µM.
`CC(F)(F)c1cccc(-n2cc(COc3ncc(C(F)F)cn3)nn2)c1` [Example 302, 2-[[1-[3-(1,1-Difluoroethyl)phenyl]triazol-4-yl]methoxy]-5-(difluoromethyl)pyrimidine] was tested, and the IC50 was 0.002 µM.
For `CC(F)(F)c1cccc(-n2cc(COc3nccc(C(F)F)n3)nn2)c1` [Example 303, 2-[[1-[3-(1,1-Difluoroethyl)phenyl]triazol-4-yl]methoxy]-4-(difluoromethyl)pyrimidine], the IC50 was 0.085 µM.
With `CC(F)(F)c1cccc(-n2cc(COc3nccc(C(F)(F)F)n3)nn2)c1` [Example 304, 2-[[1-[3-(1,1-Difluoroethyl)phenyl]triazol-4-yl]methoxy]-4-(trifluoromethyl)pyrimidine] the IC50 was 0.711 µM.
`COc1cnc(OCc2cn(-c3cccc(C(C)(F)F)c3)nn2)nc1` [Example 306, 2-[[1-[3-(1,1-Difluoroethyl)phenyl]triazol-4-yl]methoxy]-5-methoxy-pyrimidine] showed an IC50 of 0.003 µM.
For `COc1ccnc(OCc2cn(-c3cccc(C(C)(F)F)c3)nn2)n1` [Example 307, 2-[[1-[3-(1,1-Difluoroethyl)phenyl]triazol-4-yl]methoxy]-4-methoxy-pyrimidine], the IC50 was 0.033 µM.
`CC(F)(F)c1cccc(-n2cc(COc3ncc(OC(F)F)cn3)nn2)c1` [Example 308, 2-[[1-[3-(1,1-Difluoroethyl)phenyl]triazol-4-yl]methoxy]-5-(difluoromethoxy)pyrimidine] gave an IC50 of 0.003 µM.
`CC(=O)c1cnc(OCc2cn(-c3cccc(C(C)(F)F)c3)nn2)nc1` [Example 309, 1-[2-[[1-[3-(1,1-Difluoroethyl)phenyl]triazol-4-yl]methoxy]pyrimidin-5-yl]ethanone] was tested, and the IC50 was 0.01 µM.
Compound `Cc1nc(OCc2cn(-c3cccc(C(C)(F)F)c3)nn2)ncc1Cl` [Example 312, 5-Chloro-2-[[1-[3-(1,1-difluoroethyl)phenyl]triazol-4-yl]methoxy]-4-methyl-pyrimidine] has an IC50 of 0.004 µM.
For `Cc1nc(OCc2cn(-c3cccc(C(C)(F)F)c3)nn2)ncc1F` [Example 313, 2-[[1-[3-(1,1-Difluoroethyl)phenyl]triazol-4-yl]methoxy]-5-fluoro-4-methyl-pyrimidine], the IC50 was 0.005 µM.
With `Cc1cnc(OCc2cn(-c3cccc(C(C)(F)F)c3)nn2)nc1N` [Example 314, 2-[[1-[3-(1,1-Difluoroethyl)phenyl]triazol-4-yl]methoxy]-5-methyl-pyrimidin-4-amine] the IC50 was 0.006 µM.
In the case of `CNc1nc(OCc2cn(-c3cccc(C(C)(F)F)c3)nn2)ncc1F` [Example 315, 2-[[1-[3-(1,1-Difluoroethyl)phenyl]triazol-4-yl]methoxy]-5-fluoro-N-methyl-pyrimidin-4-amine], the IC50 was 0.158 µM.
Compound `CC(F)(F)c1cccc(-n2cc(COc3nccc(N)n3)nn2)c1` [Example 316, 2-[[1-[3-(1,1-Difluoroethyl)phenyl]triazol-4-yl]methoxy]pyrimidin-4-amine] has an IC50 of 0.183 µM.
`CNc1ccnc(OCc2cn(-c3cccc(C(C)(F)F)c3)nn2)n1` [Example 317, 2-[[1-[3-(1,1-Difluoroethyl)phenyl]triazol-4-yl]methoxy]-N-methyl-pyrimidin-4-amine] gave an IC50 of 0.026 µM.
Work on `CN(C)c1ccnc(OCc2cn(-c3cccc(C(C)(F)F)c3)nn2)n1` [Example 318, 2-[[1-[3-(1,1-Difluoroethyl)phenyl]triazol-4-yl]methoxy]-N,N-dimethyl-pyrimidin-4-amine] yielded an IC50 of 0.026 µM.
`CC(F)(F)c1cccc(-n2cc(COc3ncc(C4CC4)cn3)nn2)c1` [Example 319, 5-Cyclopropyl-2-[[1-[3-(1,1-difluoroethyl)phenyl]triazol-4-yl]methoxy]pyrimidine] gave an IC50 of 0.015 µM.
Work on `CC(F)(F)c1cccc(-n2cc(COc3ncc(N4CCC4)cn3)nn2)c1` [Example 320, 5-(Azetidin-1-yl)-2-[[1-[3-(1,1-difluoroethyl)phenyl]triazol-4-yl]methoxy]pyrimidine] yielded an IC50 of 0.061 µM.
`CC(F)(F)c1cccc(-n2cc(COc3ncc(N4CC(F)C4)cn3)nn2)c1` [Example 321, 2-[[1-[3-(1,1-Difluoroethyl)phenyl]triazol-4-yl]methoxy]-5-(3-fluoroazetidin-1-yl)pyrimidine] gave an IC50 of 0.104 µM.
Work on `CC(F)(F)c1cccc(-n2cc(COc3nccc(N4CCCC4)n3)nn2)c1` [Example 322, 2-[[1-[3-(1,1-Difluoroethyl)phenyl]triazol-4-yl]methoxy]-4-pyrrolidin-1-yl-pyrimidine] yielded an IC50 of 0.011 µM.
In the case of `FC(F)Oc1cccc(-n2cc(COc3ncccn3)nn2)c1` [Example 323, 2-[[1-[3-(Difluoromethoxy)phenyl]triazol-4-yl]methoxy]pyrimidine], the IC50 was 0.788 µM.
Compound `Fc1cnc(OCc2cn(-c3cccc(OC(F)F)c3)nn2)nc1` [Example 324, 2-[[1-[3-(Difluoromethoxy)phenyl]triazol-4-yl]methoxy]-5-fluoro-pyrimidine] has an IC50 of 0.494 µM.
With `COc1cnc(OCc2cn(-c3cccc(OC(F)F)c3)nn2)nc1` [Example 325, 2-[[1-[3-(Difluoromethoxy)phenyl]triazol-4-yl]methoxy]-5-methoxy-pyrimidine] the IC50 was 0.027 µM.
In the case of `FC(F)Oc1cccc(-n2cc(COc3ncc(Cl)cn3)nn2)c1` [Example 326, 5-Chloro-2-[[1-[3-(difluoromethoxy)phenyl]triazol-4-yl]methoxy]pyrimidine], the IC50 was 0.069 µM.
`Cc1cnc(OCc2cn(-c3cccc(OC(F)F)c3)nn2)nc1` [Example 327, 2-[[1-[3-(Difluoromethoxy)phenyl]triazol-4-yl]methoxy]-5-methyl-pyrimidine] showed an IC50 of 0.015 µM.
For `CCc1cnc(OCc2cn(-c3cccc(OC(F)F)c3)nn2)nc1` [Example 328, 2-[[1-[3-(Difluoromethoxy)phenyl]triazol-4-yl]methoxy]-5-ethyl-pyrimidine], the IC50 was 0.029 µM.
`FC(F)Oc1ccc(-n2cc(COc3ncccn3)nn2)cc1` [Example 329, 2-[[1-[4-(Difluoromethoxy)phenyl]triazol-4-yl]methoxy]pyrimidine] showed an IC50 of 0.854 µM.
For `Fc1cnc(OCc2cn(-c3ccc(OC(F)F)cc3)nn2)nc1` [Example 330, 2-[[1-[4-(Difluoromethoxy)phenyl]triazol-4-yl]methoxy]-5-fluoro-pyrimidine], the IC50 was 0.752 µM.
Compound `COc1cnc(OCc2cn(-c3ccc(OC(F)F)cc3)nn2)nc1` [Example 331, 2-[[1-[4-(Difluoromethoxy)phenyl]triazol-4-yl]methoxy]-5-methoxy-pyrimidine] has an IC50 of 0.098 µM.
In the case of `FC(F)Oc1ccc(-n2cc(COc3ncc(Cl)cn3)nn2)cc1` [Example 332, 5-Chloro-2-[[1-[4-(difluoromethoxy)phenyl]triazol-4-yl]methoxy]pyrimidine], the IC50 was 0.2 µM.
With `Cc1cnc(OCc2cn(-c3ccc(OC(F)F)cc3)nn2)nc1` [Example 333, 2-[[1-[4-(Difluoromethoxy)phenyl]triazol-4-yl]methoxy]-5-methyl-pyrimidine] the IC50 was 0.087 µM.
`CCc1cnc(OCc2cn(-c3ccc(OC(F)F)cc3)nn2)nc1` [Example 334, 2-[[1-[4-(Difluoromethoxy)phenyl]triazol-4-yl]methoxy]-5-ethyl-pyrimidine] was tested, and the IC50 was 0.051 µM.
With `FC(F)(F)Oc1ccc(-n2cc(COc3ncccn3)nn2)cc1` [Example 335, 2-[[1-[4-(Trifluoromethoxy)phenyl]triazol-4-yl]methoxy]pyrimidine] the IC50 was 3.12 µM.
`COc1cnc(OCc2cn(-c3ccc(OC(F)(F)F)cc3)nn2)nc1` [Example 337, 5-Methoxy-2-[[1-[4-(trifluoromethoxy)phenyl]triazol-4-yl]methoxy]pyrimidine] showed an IC50 greater than 10 µM.
`FC(F)(F)Oc1ccc(-n2cc(COc3ncc(Cl)cn3)nn2)cc1` [Example 338, 5-Chloro-2-[[1-[4-(trifluoromethoxy)phenyl]triazol-4-yl]methoxy]pyrimidine] gave an IC50 of 9.05 µM.
`Cc1cnc(OCc2cn(-c3ccc(OC(F)(F)F)cc3)nn2)nc1` [Example 339, 5-Methyl-2-[[1-[4-(trifluoromethoxy)phenyl]triazol-4-yl]methoxy]pyrimidine] was tested, and the IC50 was 1.13 µM.
In the case of `CCc1cnc(OCc2cn(-c3ccc(OC(F)(F)F)cc3)nn2)nc1` [Example 340, 5-Ethyl-2-[[1-[4-(trifluoromethoxy)phenyl]triazol-4-yl]methoxy]pyrimidine], the IC50 was 0.794 µM.
With `FC(F)(F)Oc1cccc(-n2cc(COc3ncccn3)nn2)c1` [Example 341, 2-[[1-[3-(Trifluoromethoxy)phenyl]triazol-4-yl]methoxy]pyrimidine] the IC50 was 0.538 µM.
`Cc1cnc(OCc2cn(-c3cccc(OC(F)(F)F)c3)nn2)nc1` [Example 342, 5-Methyl-2-[[1-[3-(trifluoromethoxy)phenyl]triazol-4-yl]methoxy]pyrimidine] was tested, and the IC50 was 0.017 µM.

Reference: patent US10233173B2, “Substituted 1,2,3-triazoles as NR2B-selective NMDA modulators” (JANSSEN PHARMACEUTICA NV, priority 2016, dated 2019)
